The text below walks through data of patent publication US20220089593A1, “PDE9 INHIBITOR AND USE THEREOF” (TRANSTHERA SCIENCES (NANJING), INC., priority 2019, published 2022).

T1 sequence (O76083 1-533 isoform O76083-2): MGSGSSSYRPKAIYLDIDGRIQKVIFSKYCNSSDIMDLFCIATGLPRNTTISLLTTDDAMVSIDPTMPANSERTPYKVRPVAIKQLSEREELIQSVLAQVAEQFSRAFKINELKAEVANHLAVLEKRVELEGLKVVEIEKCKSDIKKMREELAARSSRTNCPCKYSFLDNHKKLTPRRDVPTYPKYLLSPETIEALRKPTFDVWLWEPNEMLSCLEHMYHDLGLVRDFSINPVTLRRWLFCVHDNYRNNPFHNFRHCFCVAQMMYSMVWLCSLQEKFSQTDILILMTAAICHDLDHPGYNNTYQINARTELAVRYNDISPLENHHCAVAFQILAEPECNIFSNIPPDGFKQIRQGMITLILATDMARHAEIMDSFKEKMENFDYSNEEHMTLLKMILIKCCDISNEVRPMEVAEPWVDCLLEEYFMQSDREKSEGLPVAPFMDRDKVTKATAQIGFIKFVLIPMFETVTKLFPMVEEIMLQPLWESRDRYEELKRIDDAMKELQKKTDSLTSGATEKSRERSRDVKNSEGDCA

One data set addresses T1, PDE9A2 enzyme (Homo sapiens, UniProt O76083).
T1 construct: purchased BPS 60090
Kind of data set: PDE9 enzymatic evaluation. Type of data set: biochemical. The following applies: PDE9A2 enzyme (BPS), fluorescence reading 480 nm/535 nm, room temperature.
Experimental: Preparation of the compounds: Compounds were formulated into 10 mM compound stock solution in DMSO for long term storage.
Subsequently, 10 μL of the substrate mixture was added, and after centrifugation at 1000 rpm for 1 min, the resulting mixture was incubated at room temperature with oscillating for 30 min. Finally, stop solution was added to end the reaction, and the resulting reaction system was incubated at room temperature with oscillating for 60 min. In the maximum reading well (Max), the compound was replaced by solvent; in the minimum reading well (Min), the compound and the enzyme solution were replaced by solvent.
Detection: the fluorescence readings (F) at 480 nm/535 nm were detected using a microplate reader.
Calculation: The inhibition rate was calculated according to the following formula and IC50 was fitted using GraphPad Prism 5.0:
In general, IC50 refers to the concentration that gives 50% inhibition. Consider `COC1(C)CCN(c2c(C#N)c(=O)[nH]c3ccc(C)nc23)CC1` [Compound 166, 4-(4-methoxy-4-methylpiperidin-1-yl)-6-methyl-2-oxo-1,2-dihydro-1,5-naphthyridine-3-carbonitrile], for which the half-maximal inhibitory concentration (IC50) was 19 nM. The same measure, in the same setting: to `CCc1ccc2[nH]c(=O)c(C#N)c(N3CCC(C)(OC)CC3)c2n1` [Compound 167, 6-ethyl-4-(4-methoxy-4-methylpiperidin-1-yl)-2-oxo-1,2-dihydro-1,5-naphthyridine-3-carbonitrile] belongs 11 nM.

For the molecule `CC1(C)CCN(c2c(C#N)c(=O)[nH]c3ccccc23)CC1` [Compound I-11, reference compound], the midpoint of inhibition, the IC50, lay at 70 nM. This IC50 is about 6.4-fold higher than that of the molecule before. For the molecule `COC1(C)CCN(c2c(C#N)c(=O)[nH]c3cnc(C(C)C)cc23)CC1` [Compound 163, 6-isopropyl-4-(4-methoxy-4-methylpiperidin-1-yl)-2-oxo-1,2-dihydro-1,7-naphthyridine-3-carbonitrile], the 50% inhibitory concentration (IC50) stood at 50 nM. The IC50 values of the last two molecules are within 1.5-fold of each other. On the same count and under the same terms, as for `COC1(C)CCN(c2c(C#N)c(=O)[nH]c3cnc(CO)cc23)CC1` [Compound 177, 6-(hydroxymethyl)-4-(4-methoxy-4-methylpiperidin-1-yl)-2-oxo-1,2-dihydro-1,7-naphthyridine-3-carbonitrile], the figure is 15 nM. Take `CC(O)c1cc2c(N3CCC(C)(O)CC3)c(C#N)c(=O)[nH]c2cn1` (stereo not shown) [Compound 194, 4-(4-hydroxy-4-methylpiperidin-1-yl)-6-(1-hydroxyethyl)-2-oxo-1,2-dihydro-1,7-naphthyridine-3-carbonitrile]: the half-inhibitory concentration (IC50) is 37 nM. Compared with the last molecule, the IC50 is about 2.5-fold higher. Still for that read-out and setting: to `COC1(C)CCN(c2c(C#N)c(=O)[nH]c3cccnc23)CC1` [Compound 165, 4-(4-methoxy-4-methylpiperidin-1-yl)-2-oxo-1,2-dihydro-1,5-naphthyridine-3-carbonitrile] belongs 24 nM.

Test system in the next data set: not listed separately
Briefly: Dog liver microsomal stability. Type of data set: in vitro ADME. The following applies: dog liver microsomes 0.5 mg protein/mL, compound 1 μM, β-NADPH 1 mM, 37° C. Here is the method:
Test samples: the compounds disclosed herein and the compound 1-8 of patent WO2017019723A1 (prepared by referring to the examples for synthesis in WO2017019723A1) having the following structural formula: […]
An appropriate amount of the compound was precisely weighed out and dissolved in DMSO to prepare a 5.0 mM stock solution. The 5.0 mM stock solution was diluted to 1.0 mM with DMSO, and then diluted with water to 10 μM compound working solution for later use (DMSO content in the reaction system: 0.1% v/v).
Vd=1/protein content in liver microsomes
(Liver microsomes are vesicles of endoplasmic reticulum, rich in cytochrome P450 enzymes.)
What is called half-life is the time in which the quantity being followed falls by half. A lower half-life goes with rapid decline. In general, microsomal CLint refers to the capacity of the preparation to metabolise the compound, expressed as a volume cleared per time. A lower microsomal CLint goes with slow turnover. Molecule `N#Cc1c(N2CCCCCC2)c2ccccc2[nH]c1=O` [Compound I-8, reference compound] had a half-life at 1 μM of 0.2 h and a microsomal CLint at 1 μM of 116 µL/min/mg. In the case of `COC1(C)CCN(c2c(C#N)c(=O)[nH]c3ccc(C)nc23)CC1` [Compound 166, 4-(4-methoxy-4-methylpiperidin-1-yl)-6-methyl-2-oxo-1,2-dihydro-1,5-naphthyridine-3-carbonitrile], the half-life at 1 μM was 6.8 h and the microsomal CLint at 1 μM came to 3.4 µL/min/mg. Taken in the same sequence, the figures for `CCc1ccc2[nH]c(=O)c(C#N)c(N3CCC(C)(OC)CC3)c2n1` [Compound 167, 6-ethyl-4-(4-methoxy-4-methylpiperidin-1-yl)-2-oxo-1,2-dihydro-1,5-naphthyridine-3-carbonitrile] were 2.32 h and 10 µL/min/mg. Taken in the same sequence, the figures for `COC1(C)CCN(c2c(C#N)c(=O)[nH]c3cnc([C@H](C)O)cc23)CC1` (single isomer, unassigned) [Compound B, 6-(1-hydroxyethyl)-4-(4-methoxy-4-methylpiperidin-1-yl)-2-oxo-1,2-dihydro-1,7-naphthyridine-3-carbonitrile] were 14.4 h and 1.6 µL/min/mg. On the same counts, the results for `COC1(C)CCN(c2c(C#N)c(=O)[nH]c3cnc(C(C)OP(=O)([O-])[O-])cc23)CC1.[Na+].[Na+]` (stereo not shown) [Compound 204] are 8.25 h and 2.8 µL/min/mg.

The target in the next data set is human PDE9 (Homo sapiens, UniProt O76083).
Chain of human PDE9 (O76083 whole entry): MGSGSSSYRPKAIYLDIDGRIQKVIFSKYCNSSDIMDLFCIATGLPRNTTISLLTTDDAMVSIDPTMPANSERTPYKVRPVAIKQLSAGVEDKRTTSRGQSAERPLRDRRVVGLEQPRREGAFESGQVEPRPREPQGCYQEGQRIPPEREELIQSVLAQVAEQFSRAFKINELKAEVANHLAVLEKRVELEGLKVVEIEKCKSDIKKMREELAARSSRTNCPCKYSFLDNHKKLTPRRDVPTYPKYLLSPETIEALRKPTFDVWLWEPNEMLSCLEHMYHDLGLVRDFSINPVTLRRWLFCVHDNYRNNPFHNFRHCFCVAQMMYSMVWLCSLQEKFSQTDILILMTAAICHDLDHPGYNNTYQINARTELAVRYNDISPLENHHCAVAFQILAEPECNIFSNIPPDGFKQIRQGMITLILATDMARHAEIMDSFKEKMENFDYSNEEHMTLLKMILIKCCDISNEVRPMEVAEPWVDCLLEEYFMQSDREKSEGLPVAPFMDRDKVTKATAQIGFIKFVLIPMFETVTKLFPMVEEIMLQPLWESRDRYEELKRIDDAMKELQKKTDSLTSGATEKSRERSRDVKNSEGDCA
Assay: not given
The note with it: background statement; cited from earlier work.
With `CCOC(=O)C1=C[C@]2(CC)CCCN3CCc4c(n1c1ccccc41)[C@@H]32` [vinpocetine], the “inhibitory activity against PDE9” value was “no inhibitory activity or low inhibitory activity”. Consider `CC(=O)Nc1ccc(-c2c[nH]c(=O)cn2)cc1` [SKF94120], for which the “inhibitory activity against PDE9” value is listed as “no inhibitory activity or low inhibitory activity”. With `CC(C)Cn1c(=O)n(C)c(=O)c2[nH]cnc21` [IBMX], the “inhibitory activity against PDE9” value was “no inhibitory activity or low inhibitory activity”.

As for `OCCN(CCO)c1nc(N2CCCCC2)c2nc(N(CCO)CCO)nc(N3CCCCC3)c2n1` [dipyridamole], the “inhibitory activity against PDE9” value is recorded as “no inhibitory activity or low inhibitory activity”.

In the case of `COc1ccc(C2CNC(=O)C2)cc1OC1CCCC1` (stereo not shown) [rolipram], the “inhibitory activity against PDE9” value is listed as “no inhibitory activity or low inhibitory activity”.
